Laboratory results as given in patent publication EP3496534B1, “LIQUID CONCENTRATE FOR PRESERVATION” (Ashland Industries Europe GmbH, priority 2016, dated 2018).
“Also recorded” adds a separate entry of the source.

How the values were obtained:
Format in all cases: physicochemical
[1] = Solubility of diols in fully demineralized water
[2] = Solubility of mixture A + diols; settings: 10g of substance added to 90g of mixture A
Method: 10g of each of the following substances was added to 90g of mixture A to obtain solutions (Table 3).

[3] = Solubility of various carboxylic acid salts + diols (appearance after stirring 3 h)
Method: Various carboxylic acid salts were mixed with diols in order to test whether homogenous concentrates could be obtained: […]
In example 4c, 10 g of 1-(2-ethyl hexyl) glycerol ether or of 1,2-octanediol, was added to an aqueous potassium sorbate solution in order to obtain solutions (Table 4c). Table 4c […]
In example 4e, 10g of 1-(2-ethyl hexyl) glycerol ether or of 1,2-octanediol was added to aqueous mixtures of potassium sorbate with sodium benzoate (weight ratio 1/1) in order to obtain solutions (Table 4e) Table 4e

[4] = Surface tension of mixture A with water or diols; settings: for surface tension (change against addition of 10 parts of water): 10 parts added to 90 parts of mixture A, application concentration of 1% in water; for Surface tension, 1% in water, mN/m: 90.0 parts mixture A + 10.0 parts of the substance
Method: The surface tension of mixtures of 90 parts of mixture A from example 1 with 10 parts of water or diols respectively was determined (Table 5): Table 5

[5] = 10.0 diol in potassium sorbate 5.0 / sodium benzoate 5.0 / water 80.0
[6] = 10.0 diol in potassium sorbate 10.0 / sodium benzoate 10.0 / water 70.0
[7] = 10.0 diol in potassium sorbate 10.0 / water 80.0
[8] = 10.0 diol in potassium sorbate 15.0 / sodium benzoate 15.0 / water 60.0
[9] = 10.0 diol in potassium sorbate 20.0 / water 70.0
[10] = 10.0 diol in potassium sorbate 22.5 / sodium benzoate 22.5 / water 45.0
[11] = 10.0 diol in potassium sorbate 30.0 / water 60.0
[12] = 10.0 diol in potassium sorbate 45.0 / water 45.0
[13] = 10.0 diol in sodium benzoate 10.0 / water 80.0
[14] = 10.0 diol in sodium benzoate 20.0 / water 70.0
[15] = 10.0 diol in sodium benzoate 30.0 / water 60.0
[16] = 10.0 diol in sodium benzoate 45.0 / water 45.0
[17] = 10.0 parts diol in potassium formate 45.0 / fully demineralized water 45.0
[18] = 10.0 parts diol in sodium propionate 30.0 / fully demineralized water 60.0

For `CCCCCCCCCCC(O)CO` (stereo not drawn) [1,2-dodecanediol], the Solubility [1] was under 0.1% and the “Solubility of mixture A + diols” value [2] was “dissolve; also recorded: clear solution”.

For `CCCCC(O)CO` (stereo not drawn) [1,2-hexanediol], the Solubility [1] was “Unlimited” and the “Solubility of mixture A + diols” value [2] was “clear solution”.

For `CCCCCCC(O)CO` (stereo not drawn) [1,2-octanediol], the Solubility [1] was 0.7%, the “Solubility of mixture A + diols” value [2] was “clear solution” and the “Appearance of solution after stirring during 3 h” value (shortened to “Appearance of solution”) [3, 5] was 2 phases. For the same molecule, the “Appearance of solution” value [3, 6] was “can dissolve; also recorded: clear”, the “Appearance of the solution after stirring during 3h” value (from here on “Appearance of the solution”) [3, 7] was 2 phases and the “Appearance of solution” value [3, 8] was “can dissolve; also recorded: clear”. The “Appearance of the solution” value [3, 9] was “can dissolve; also recorded: clear”, the “Appearance of solution” value [3, 10] was “can dissolve; also recorded: clear” and the “Appearance of the solution” value [3, 11] was “can dissolve; also recorded: clear”. For the same molecule, the “Appearance of the solution” value [3, 12] was “can dissolve; also recorded: clear”, the “Appearance of solution” value [3, 13] was 2 phases and the “Appearance of solution” value [3, 14] was “can dissolve; also recorded: clear”. For the same molecule, the “Appearance of solution” value [3, 15] was “can dissolve; also recorded: clear”, the “Appearance of solution” value [3, 16] was “can dissolve; also recorded: clear” and the “Appearance after stirring for 3 h” value [3, 17] was “can dissolve neither; also recorded: not dissolved, 2 phases”. The “Appearance after stirring for 3 h” value [3, 18] was “can dissolve neither; also recorded: not dissolved, 2 phases”, the “surface tension (change against addition of 10 parts of water)” value [4] was “significantly decreased” and the “Surface tension, 1% in water, mN/m” value [4] was 44.7 mN/m.

With `CCCCC(CC)COCC(O)CO` (stereo not drawn) [1-(2-ethylhexyl) glycerol ether] the Solubility [1] was 0.1%, the “Solubility of mixture A + diols” value [2] was “clear solution” and the “Appearance of solution” value [3, 5] was 2 phases. For the same molecule, the “Appearance of solution” value ([3]; 10.0 diol in potassium sorbate 7.5 / sodium benzoate 7.5 / water 75.0) was 2 phases, the “Appearance of solution” value [3, 6] was “can dissolve” and the “Appearance of solution” value ([3]; 10.0 diol in potassium sorbate 10.0 / sodium benzoate 10.0 / water 70.0, listed as 1-(2-ethylhexyl)-glycerol ether) was “clear”. For the same molecule, the “Appearance of the solution” value [3, 7] was 2 phases, the “Appearance of solution” value [3, 8] was “can dissolve” and the “Appearance of solution” value ([3]; 10.0 diol in potassium sorbate 15.0 / sodium benzoate 15.0 / water 60.0, listed as 1-(2-ethylhexyl)-glycerol ether) was “clear”. For the same molecule, the “Appearance of the solution” value ([3]; 10.0 diol in potassium sorbate 15.0 / water 75.0) was 2 phases, the “Appearance of the solution” value [3, 9] was “clear” and the “Appearance of the solution” value ([3]; 10.0 diol in potassium sorbate 20.0 / water 70.0, listed as 1-(2-ethylhexyloxy)glycerol ether) was “can dissolve”. The “Appearance of solution” value [3, 10] was “can dissolve”, the “Appearance of solution” value ([3]; 10.0 diol in potassium sorbate 22.5 / sodium benzoate 22.5 / water 45.0, listed as 1-(2-ethylhexyl)-glycerol ether) was “clear” and the “Appearance of the solution” value [3, 11] was “clear”. For the same molecule, the “Appearance of the solution” value ([3]; 10.0 diol in potassium sorbate 30.0 / water 60.0, listed as 1-(2-ethylhexyloxy)glycerol ether) was “can dissolve”, the “Appearance of the solution” value [3, 12] was “clear” and the “Appearance of the solution” value ([3]; 10.0 diol in potassium sorbate 45.0 / water 45.0, listed as 1-(2-ethylhexyloxy)glycerol ether) was “can dissolve”. The “Appearance of solution” value [3, 13] was 2 phases, the “Appearance of solution” value ([3]; 10.0 diol in sodium benzoate 15.0 / water 75.0) was 2 phases and the “Appearance of solution” value [3, 14] was “can dissolve; also recorded: clear”. For the same molecule, the “Appearance of solution” value [3, 15] was “can dissolve; also recorded: clear”, the “Appearance of solution” value [3, 16] was “can dissolve; also recorded: clear” and the “Appearance after stirring for 3 h” value [3, 17] was “can dissolve neither; also recorded: not dissolved, 2 phases”. For the same molecule, the “Appearance after stirring for 3 h” value [3, 18] was “not dissolved, 2 phases”, the “Appearance after stirring for 3 h” value ([3]; 10.0 parts diol in sodium propionate 30.0 / fully demineralized water 60.0, listed as 1-(2-ethylhexyl)glycerol ether) was “can dissolve neither” and the “surface tension (change against addition of 10 parts of water)” value [4] was “significantly decreased”. The “Surface tension, 1% in water, mN/m” value [4] was 35.6 mN/m.

With `CCCCCCCCCCCCOCC(O)CO` (stereo not drawn) [1-dodecyl glycerol ether] the Solubility [1] was under 0.1% and the “Solubility of mixture A + diols” value [2] was “clear solution”.

For `OCC(O)CO` [Glycerol (85%), Glycerol, reference compound], the “surface tension (change against addition of 10 parts of water)” value [4] was “not observed” and the “Surface tension, 1% in water, mN/m” value [4] was 72.2 mN/m.

For `CC(O)CO` (stereo not drawn) [Propylene glycol, reference compound], the “surface tension (change against addition of 10 parts of water)” value [4] was “not observed” and the “Surface tension, 1% in water, mN/m” value [4] was 72.3 mN/m.

With `O` [Water] the “Surface tension, 1% in water, mN/m” value [4] was 71.9 mN/m.
